Laboratory results taken from ChEMBL document CHEMBL1133177, “Application of similarity matrices and genetic neural networks in quantitative structure-activity relationships of 2- or 4-(4-Methylpiperazino)pyrimidines: 5-HT(2A) receptor antagonists” (J Med Chem, 2000).

Columns and labels:
[1] = target: T1, 5-hydroxytryptamine receptor 2A (Rattus norvegicus, UniProt P14842); assay: Affinity for 5-hydroxytryptamine 2A receptor in rat brain cortex by ability to displace [3H]ketanserin; assay type: tissue-based
[2] = target: T1, 5-hydroxytryptamine receptor 2A; assay: Affinity 5-hydroxytryptamine 2A receptor of the rat brain cortex was assessed on the basis of their ability to displace [3H]ketanserin
[3] = target: T1, 5-hydroxytryptamine receptor 2A; assay: (§1) Affinity at 5-hydroxytryptamine 2A receptor of the rat brain cortex was assessed on the basis of their ability to displace [3H]ketanserin
[4] = target: T1, 5-hydroxytryptamine receptor 2A; assay: as §1; remark: listed apart in the source

T1 sequence (P14842 whole entry): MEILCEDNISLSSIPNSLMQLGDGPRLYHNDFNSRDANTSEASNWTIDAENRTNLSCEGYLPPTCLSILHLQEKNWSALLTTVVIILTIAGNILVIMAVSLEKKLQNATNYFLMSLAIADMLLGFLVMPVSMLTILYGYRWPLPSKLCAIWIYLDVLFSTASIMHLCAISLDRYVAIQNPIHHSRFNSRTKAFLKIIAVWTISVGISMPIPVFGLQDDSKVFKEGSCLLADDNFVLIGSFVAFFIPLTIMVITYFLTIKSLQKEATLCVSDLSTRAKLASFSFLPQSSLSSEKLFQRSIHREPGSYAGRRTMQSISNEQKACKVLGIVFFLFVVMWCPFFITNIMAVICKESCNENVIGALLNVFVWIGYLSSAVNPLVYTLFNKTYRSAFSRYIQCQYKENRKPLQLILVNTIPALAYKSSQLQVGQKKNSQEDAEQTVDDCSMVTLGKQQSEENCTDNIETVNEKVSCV

Row | SMILES | Ki [1] [µM] | Ki [2] [µM] | Ki [3] [µM] | Ki [4] [µM]
1 | CN1CCN(c2nc(-c3ccco3)cc(-c3cc4ccccc4s3)n2)CC1 | 0.0372 |  |  | 
2 | CN1CCN(c2nccc(-c3ccsc3)n2)CC1 | 0.191 |  |  | 
3 | CN1CCN(c2nccc(-n3ccnc3)n2)CC1 | 0.38 | 0.384 |  | 
4 | Cc1ccc(-c2cc(N3CCN(C)CC3)nc(Cl)n2)cc1 |  |  | 4.22 | 4.27
5 | CN1CCN(c2nc(-c3cc4ccccc4o3)cc(-c3cccn3C)n2)CC1 | 0.135 |  |  | 
6 | CN1CCN(c2nc(-c3ccsc3)cc(-c3cccs3)n2)CC1 | 0.0209 |  |  | 
7 | CN1CCN(c2nc(Cl)cc(-c3cccs3)n2)CC1 |  |  | 0.353 | 0.347
8 | CN1CCN(c2cc(-c3cccs3)nc(Cl)n2)CC1 |  |  | 2.72 | 2.69
9 | CN1CCN(c2nc(-c3ccco3)cc(-c3cc4ccccc4o3)n2)CC1 | 0.11 |  |  | 
10 | CN1CCN(c2nc(-c3ccco3)cc(-c3cccs3)n2)CC1 | 0.0372 |  |  | 
11 | Cc1c(-c2cccs2)nc(N2CCN(C)CC2)nc1-c1cccs1 | 0.017 |  |  | 
12 | CN1CCN(c2nc(-c3ccoc3)cc(-c3cc4ccccc4s3)n2)CC1 | 0.055 |  |  | 
13 | CN1CCN(c2cc(-c3ccco3)nc(Cl)n2)CC1 |  |  | 5.96 | 6.03
14 | CN1CCN(c2cc(-n3ccnc3)ncn2)CC1 |  |  | > 10 | > 10
15 | CN1CCN(c2nc(Cl)cc(-c3ccoc3)n2)CC1 | 0.0407 | 0.041 |  | 
16 | Cc1ccc(-c2cc(Cl)nc(N3CCN(C)CC3)n2)cc1 | 0.575 | 0.582 |  | 
